Test results from US5773449A, “Thioquinolone compounds which have useful pharmaceutical activity” (Zenyaku Kogyo Kabushiki Kaisha, priority 1994, dated 1998).
In brackets after ≈: the same amount, converted by molar mass.

Assays:
Type in all cases: cell-based
[1] = tested on: Helicobacter pylori standard strain ATCC 43526 (NCTC 11916); assay: Antibacterial test 1: agar plate dilution method (anaerobic MIC method) against Hp; conditions: 72 h; Helicobacter pylori ATCC 43526 (NCTC 11916); brucella agar + 7% horse blood, microaerobic, 37° C., 3 days
Protocol: Antibacterial test against Hp was performed in substantial accordance with agar plate dilution method (anaerobic MIC method) based on Standard method of The Japan Society of Chemotherapy to determine minimum inhibitory concentration (MIC) of the respective test compounds. The respective test compounds were sequentially dissolved in dimethyl sulfoxide (DMSO) and serially diluted twofold. […] Strain used for inoculation was Helicobacter pylori standard strain ATCC 43526 (NCTC 11916). For pre-culturing of bacteria to be inoculated, the above-mentioned strain freezingly conserved at -135° C. was thawed in a warm bath (40° C.), applied on a brucella agar medium containing 7% horse blood free from fibrin, and microaerobically cultured in a jar for anaerobic bacteria at 37° C. for 3 days. The solution of bacteria to be inoculated was prepared by collecting colonies grown on the culture medium and suspending the same in the brucella broth.

E.coli NIHJ JC-2 = assay: Antibacterial Test 2: agar plate dilution method (aerobic MIC method), E.coli; conditions: Escherichia coli, NIHJJC2, sensitive-disk agar medium-N
Protocol: (§1) Then, tested were antibacterial activities of the typical compounds of the present invention against gram-positive and-negative bacteria other than Hp. MICs of the typical compounds of the present invention were determined in substantial accordance with agar plate dilution method (aerobic MIC method) based on Standard method of The Japan Society of Chemotherapy.
(§2) The respective test compound were dissolved in dimethyl sulfoxide (DMSO) and serially diluted twofold. These diluted solutions of the compounds were respectively added to sensitive-disk agar medium-N (manufactured by NISSUI SEIYAKU) to prepare agar plates for determination with concentration of 0.05-100 μg/ml.
(§3) The below-mentioned strains freezingly conserved at -135° C. were thawed in a warm bath (40° C.), cultured in a sensitivity-determining bouillon at 37° C. for 18-20 hours, and then diluted with the above-mentioned medium to prepare about 1.0×10^6CFU/ml of bacterial solution.
(§4) Inoculation was made by 5 μl by multi-inoculator (manufactured by SAKUMA SEISAKUSHO). Culturing was made under the same conditions as those of the pre-culturing and the MIC (unit: μg/ml) was determined by observing whether the bacteria grew or not.

M.luteus ATCC 9341 = assay: Antibacterial Test 2: agar plate dilution method (aerobic MIC method), M.luteus; conditions: Micrococcus luteus, ATCC9341, sensitive-disk agar medium-N
Protocol: as §1, §2, §3, §4

K.pneumoniae PCI 602 = assay: Antibacterial Test 2: agar plate dilution method (aerobic MIC method), K.pneumoniae; conditions: Klebsiella pneumoniae, PCI602, sensitive-disk agar medium-N
Protocol: as §1, §2, §3, §4

S.aureus FDA 209P = assay: Antibacterial Test 2: agar plate dilution method (aerobic MIC method), S.aureus; conditions: Staphylococcus aureus, FDA209P, sensitive-disk agar medium-N
Protocol: as §1, §2, §3, §4

P.aeruginosa IFO 3445 = assay: Antibacterial Test 2: agar plate dilution method (aerobic MIC method), P.aeruginosa; conditions: Pseudomonas aeruginosa, IFO3445, sensitive-disk agar medium-N
Protocol: as §1, §2, §3, §4

E.faecalis RIMD 3336001 = assay: Antibacterial Test 2: agar plate dilution method (aerobic MIC method), E.faecalis; conditions: Enterococcus faecalis, RIMD3336001, sensitive-disk agar medium-N
Protocol: as §1, §2, §3, §4

B.subtilis PCI 219 = assay: Antibacterial Test 2: agar plate dilution method (aerobic MIC method), B.subtilis; conditions: Bacillus subtilis, PCI219, sensitive-disk agar medium-N
Protocol: as §1, §2, §3, §4

| Structure (SMILES) | MIC [1] [µg/mL] | MIC (E.coli NIHJ JC-2) [µg/mL] | MIC (M.luteus ATCC 9341) [µg/mL] | MIC (K.pneumoniae PCI 602) [µg/mL] | MIC (S.aureus FDA 209P) [µg/mL] | MIC (P.aeruginosa IFO 3445) [µg/mL] | MIC (E.faecalis RIMD 3336001) [µg/mL] | MIC (B.subtilis PCI 219) [µg/mL] |
| --- | --- | --- | --- | --- | --- | --- | --- | --- |
| S=c1cc[nH]c2cc(OCc3ccccc3)ccc12 [compound 25, 7-Benzyloxyquinoline-4(1H)-thione] | 6.25 |  |  |  |  |  |  |  |
| CN(C)c1ccc2c(=S)cc[nH]c2c1 [compound 48, 7-N,N-Dimethylaminoquinoline-4(1H)-thione] | 0.2 | > 100 | > 100 | > 100 | 100 (≈ 489 µM) | > 100 | > 100 | > 100 |
| S=c1cc[nH]c2c3c(ccc12)CCCC3 [compound 40, 7,8,9,10-Tetrahydrobenzo[h]quinoline-4(1H)-thione] | 0.2 | > 100 | > 100 | > 100 | > 100 | > 100 | > 100 | > 100 |
| Cc1c(OCC(F)(F)F)ccnc1C[S+]([O-])c1nc2ccccc2[nH]1 (stereo not drawn) [lansoprazole, reference compound] | 12.5 | > 100 | > 100 | > 100 | > 100 | > 100 | > 100 | > 100 |
| S=c1cc[nH]c2c1ccc1cccnc12 [compound 45, 1,10-Phenanthroline-4(1H)-thione] | 0.39 |  |  |  |  |  |  |  |
| S=c1cc[nH]c2cc(CSc3nc4ccccc4[nH]3)ccc12 [compound 50, 7-(2-Benzimidazolyl)thiomethylquinoline-4(1H)-thione] | 1.56 | > 100 | > 100 | > 100 | > 100 | > 100 | > 100 | > 100 |
| O=C(O)CCCCCOc1ccc2c(=S)cc[nH]c2c1 [compound 51, 7-(5-Carboxy-n-pentyloxy)quinoline-4(1H)-thione] | 1.56 | > 100 | > 100 | > 100 | 100 (≈ 343 µM) | > 100 | 100 (≈ 343 µM) | > 100 |
| S=c1cc[nH]c2cc(-c3ccccc3)ccc12 [compound 3, 7-Phenylquinoline-4(1H)-thione] | 1.56 | > 100 | > 100 | > 100 | > 100 | > 100 | > 100 | > 100 |
| CCCCCCc1ccc2c(=S)cc[nH]c2c1 [compound 15, 7-n-Hexylquinoline-4(1H)-thione] | 0.39 | > 100 | > 100 | > 100 | > 100 | > 100 | > 100 | > 100 |
| CC(=O)OCc1ccc2c(=S)cc[nH]c2c1 [compound 29, 7-Acetoxymethylquinoline-4(1H)-thione] | 0.78 | > 100 | 50 (≈ 214 µM) | > 100 | 25 (≈ 107 µM) | > 100 | 50 (≈ 214 µM) | 100 (≈ 429 µM) |
| CC(C)N(C)c1ccc2c(=S)cc[nH]c2c1 [compound 34, 7-(N-Isopropyl-N-methylamino)quinoline-4(1H)-thione] | 0.78 | > 100 | > 100 | > 100 | > 100 | > 100 | > 100 | > 100 |
| CC1(C)S[C@@H]2[C@H](NC(=O)[C@H](N)c3ccc(O)cc3)C(=O)N2[C@H]1C(=O)O [amoxicillin, reference compound] | 0.05 | 3.13 (≈ 8.57 µM) | ≤ 0.05 | 50 (≈ 137 µM) | 0.1 (≈ 0.274 µM) | > 100 | 0.2 (≈ 0.547 µM) | 0.2 (≈ 0.547 µM) |
| NC(=O)c1ccc2c(=S)cc[nH]c2c1 [compound 12, 7-Carbamoylquinoline-4(1H)-thione] | 6.25 |  |  |  |  |  |  |  |
| CS(=O)(=O)Oc1ccc2c(=S)cc[nH]c2c1 [compound 28, 7-Methanesulfonyloxyquinoline-4(1H)-thione] | 0.39 | > 100 | 50 (≈ 196 µM) | > 100 | 25 (≈ 97.9 µM) | > 100 | 50 (≈ 196 µM) | > 100 |
| Cc1cccc2c(=S)cc[nH]c12 [compound 41, 8-Methylquinoline-4(1H)-thione] | 0.78 | > 100 | > 100 | > 100 | > 100 | > 100 | > 100 | > 100 |
| CCCCCCCCCCCCOc1ccc2c(=S)cc[nH]c2c1 [compound 52, 7-Dodecyloxyquinoline-4(1H)-thione] | 6.25 |  |  |  |  |  |  |  |

| Structure (SMILES) | MIC [1] [µg/mL] | MIC (E.coli NIHJ JC-2) [µg/mL] | MIC (M.luteus ATCC 9341) [µg/mL] | MIC (K.pneumoniae PCI 602) [µg/mL] | MIC (S.aureus FDA 209P) [µg/mL] | MIC (P.aeruginosa IFO 3445) [µg/mL] | MIC (E.faecalis RIMD 3336001) [µg/mL] | MIC (B.subtilis PCI 219) [µg/mL] |
| --- | --- | --- | --- | --- | --- | --- | --- | --- |
| S=c1cc[nH]c2cc(N3CCNCC3)ccc12 [compound 54, 7-(1-Piperazinyl)quinoline-4(1H)-thione] | 3.13 | > 100 | > 100 | > 100 | 100 (≈ 408 µM) | > 100 | > 100 | > 100 |
| Cc1ccc2c(=S)cc[nH]c2c1 [compound 11, 7-Methylquinoline-4(1H)-thione] | 0.39 |  |  |  |  |  |  |  |
| CC(C)c1ccc2c(=S)cc[nH]c2c1 [compound 2, 7-Isopropylquinoline-4(1H)-thione] | 1.56 | > 100 | > 100 | > 100 | > 100 | > 100 | > 100 | > 100 |
| S=c1cc[nH]c2c1ccc1ccccc12 [compound 39, Benzo[h]quinoline-4(1H)-thione] | 0.39 | > 100 | > 100 | > 100 | > 100 | > 100 | > 100 | > 100 |
| S=c1cc[nH]c2cc(SCc3ccccc3)ccc12 [compound 37, 7-Benzylthioquinoline-4(1H)-thione] | 0.78 | > 100 | > 100 | > 100 | > 100 | > 100 | > 100 | > 100 |
| O=[N+]([O-])c1cccc2c(=S)cc[nH]c12 [compound 7, 8-Nitroquinoline-4(1H)-thione] | 6.25 |  |  |  |  |  |  |  |
| S=c1cc[nH]c2cc(Oc3ccccc3)ccc12 [compound 38, 7-Phenoxyquinoline-4(1H)-thione] | 0.78 | > 100 | > 100 | > 100 | > 100 | > 100 | > 100 | > 100 |
| COc1cccc2c(=S)cc[nH]c12 [compound 42, 8-Methoxyquinoline-4(1H)-thione] | 0.39 |  |  |  |  |  |  |  |
| CCCCCCCCOc1ccc2c(=S)cc[nH]c2c1 [compound 53, 7-Octyloxyquinoline-4(1H)-thione] | 3.13 | > 100 | > 100 | > 100 | > 100 | > 100 | > 100 | > 100 |
| CCCCCCOc1ccc2c(=S)cc[nH]c2c1 [compound 24, 7-n-Hexyloxyquinoline-4(1H)-thione] | 1.56 | > 100 | > 100 | > 100 | > 100 | > 100 | > 100 | > 100 |
| CCOc1ccc2c(=S)cc[nH]c2c1 [compound 22, 7-Ethoxyquinoline-4(1H)-thione] | 3.13 | > 100 | > 100 | > 100 | > 100 | > 100 | > 100 | > 100 |
| O=[N+]([O-])c1ccc2c(=S)cc[nH]c2c1 [compound 19, 7-Nitroquinoline-4(1H)-thione] | 3.13 |  |  |  |  |  |  |  |
| S=c1cc[nH]c2cc(-c3ccc4ccccc4c3)ccc12 [compound 46, 7-(2-Naphtyl)quinoline-4(1H)-thione] | 3.13 |  |  |  |  |  |  |  |
| CC(=O)c1ccc2c(=S)cc[nH]c2c1 [compound 13, 7-Acetylquinoline-4(1H)-thione] | 1.56 |  |  |  |  |  |  |  |
| CN(C)Cc1ccc2c(=S)cc[nH]c2c1 [compound 33, 7-N,N-Dimethylaminomethylquinoline-4(1H)-thione] | 6.25 |  |  |  |  |  |  |  |
